Measurements taken from US20110306638A1, “BENZISOXAZOLE PIPERIDINYL DERIVATIVES, PHARMACEUTICAL COMPOSITIONS COMPRISING THE DERIVATIVES AND THEIR USE” (NHWA PHARMA. CORPORATION, priority 2008, published 2011).
Marks after values point to notes of the source that are not given here.

Assays:
5-HT2A receptor = target: T1, 5-HT2A receptor (Homo sapiens, UniProt P28223); experiment: In-vitro competitive binding to 5-HT2A receptor, [3H]-Ketanserin, transformed HEK293 cells
T1 construct: expressed in transfected cells; host or cells: HEK293
T1 sequence (P28223 whole entry): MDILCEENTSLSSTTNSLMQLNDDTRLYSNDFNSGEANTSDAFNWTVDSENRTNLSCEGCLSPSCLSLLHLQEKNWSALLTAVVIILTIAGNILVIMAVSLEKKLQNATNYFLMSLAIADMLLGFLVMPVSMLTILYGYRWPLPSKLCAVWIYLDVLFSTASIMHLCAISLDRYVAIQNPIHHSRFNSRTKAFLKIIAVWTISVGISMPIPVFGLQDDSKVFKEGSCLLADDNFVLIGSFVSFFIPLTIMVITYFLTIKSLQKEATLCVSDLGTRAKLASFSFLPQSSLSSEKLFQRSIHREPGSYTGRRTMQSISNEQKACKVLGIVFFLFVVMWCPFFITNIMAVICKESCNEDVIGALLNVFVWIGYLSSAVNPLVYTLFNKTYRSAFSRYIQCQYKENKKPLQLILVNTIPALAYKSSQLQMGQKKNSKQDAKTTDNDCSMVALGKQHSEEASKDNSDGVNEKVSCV
Procedure: All test samples were dissolved in DMSO at a concentration of 0.01 mol/L, and then diluted with deionized water to 100 umol/L.
HEK293 cells were transformed with plasmid carriers containing the gene coding for 5-HT2A receptor protein by using calcium phosphate transformation. Stable cell strains which could stably express 5-HT2A receptor protein were obtained from the transformed cells by cultivating in a culture media containing G418, selecting monoclones of the cell and performing radioactive ligand binding assay.
Beckman LS 6500 Scintillation Counter.
HEK-293 cells were infected with recombined viruses containing various genes described above. […] Cells were centrifuged at 1000 rpm for 5 min Culture media was discarded, and cell bodies were collected and stored at −20° C. in a freezer. The cell bodies were resuspended with Tris-HCl reaction buffer during assay.
After incubation at 37° C. for 15 min, the reaction mixture was immediately transferred into ice bath to terminate the reaction; the reaction mixture was quickly filtered through GF/C glass cellulose filter on a Millipore cell sample collector, and was then washed with eluting solution (50 mM Tris-HCl, PH 7.7, 3 ml×3) and dried in a microwave for 8-9 min. The filter was transferred into a 0.5 ml centrifuge tube, and 500 μl lipid soluble scintillation fluid was added. The centrifuge tube was allowed to stand in darkness for more than 30 min. Radioactivity was determined by counting Inhibition percentage of each compound on isotope ligand binding was calculated according to the following equation:
inhibition percentage(I %)=cpm of overall binding tube−cpm of compound/cpm of overall binding tube−cpm of nonspecific binding tube×100%.
Each compound was tested in two duplicate test tubes and two separate tests were performed.

Kunming mice = experiment: Hot-plate test in mice; type: in vivo; details: 1 h post dose
Procedure: Kunming mice, SPF KM mice were purchased from […] SLAC LABORATORY ANIMAL CO. LTD and kept in normal environment.
The compounds were dissolved in water for injection at a concentration of 4 mg/ml, 2 mg/ml and 1 mg/ml and were given subcutaneously to animals.
Three different doses (10, 20, and 40 mg/kg) were administered to the test groups.
Morphine was used as a positive control and hot plate test was used.
30-40 mice (half male and half female) weighed from 18 to 23 gram were used. First, each mouse was placed on a hot plat at 55° C. to determine basic pain threshold for 2-3 times. Those animals with basic pain threshold of 5-30 s were qualified, unqualified mice were not used. 30 qualified mice were divided into five groups, including negative control group, positive control group, low-dose group, medium-dose group and high-dose group:
Mice in test groups received test sample solution (10 mg/kg, 20 mg/kg, 40 mg/kg) via subcutaneous injection in the neck. Positive control group received subcutaneous injection of morphine (2 mg/kg). One hour later, pain threshold values were determined for mice in each group as post-drug pain threshold. Percentage increase in pain threshold was calculated according to the following equation: […]

mice = experiment: Sedative effects in mice (spontaneous activities); type: in vivo; set-up: unit not given here; details: single dose 20 mg/kg
Procedure: Spontaneous activities of the mice were recorded by alternating current tube, Sedative effects were tested after single dose (20 mg/kg).

[1] = target: opioid receptor subtype μ (Homo sapiens, UniProt P35372); experiment: Competitive binding to opioid receptor subtype μ, [3H]Diprenorphine
Chain of opioid receptor subtype μ (P35372 whole entry): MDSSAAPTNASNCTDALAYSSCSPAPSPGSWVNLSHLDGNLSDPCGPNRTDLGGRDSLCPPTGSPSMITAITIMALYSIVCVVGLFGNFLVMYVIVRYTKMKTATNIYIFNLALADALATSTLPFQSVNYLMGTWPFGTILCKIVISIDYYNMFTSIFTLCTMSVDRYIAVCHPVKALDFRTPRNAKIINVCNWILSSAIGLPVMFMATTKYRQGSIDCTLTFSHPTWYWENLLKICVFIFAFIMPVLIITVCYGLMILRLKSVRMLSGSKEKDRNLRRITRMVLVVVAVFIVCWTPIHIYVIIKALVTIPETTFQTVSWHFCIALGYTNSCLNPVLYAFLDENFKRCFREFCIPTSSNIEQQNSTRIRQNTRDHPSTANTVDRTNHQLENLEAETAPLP
Procedure: The respective test compounds were added to the sample tube (final concentration of 10^−5M), incubated at 37° C. for 30 min and placed in ice bath to terminate the reaction. The reaction mixture was filtered through GF/C (Whatman) glass fiber filter by vacuum filtration on a Millipore sample collector. The filter was washed three times with 50 mM Tris-HCl (pH7.4), each with 4 ml; dried and transferred into a 0.5 ml Eppendorf tube, in which 0.5 ml lipophilic scintillation fluid was added. Radioactivity was detected by a LS6500 scintillation counter. Each concentration had three duplicate test tubes and each separate test was repeated 3 to 4 times.
Specific binding CMP value for each sample tube=overall binding CPM value for each sample tube−CPM value of non-specific binding tube.
[Inhibition percentage of competitive binding between the test compound and different opioid receptor subtypes (%)=(100%−specific binding (CPM value)of sample tube/specific binding(CPM value)of solvent group×100%)]
Average was taken for each test drug from three duplicate tubes; each test was repeated two or more times.

[2] = Acute toxicity, single intragastric administration to mice; details: mouse, in vivo, po, Bliss method
Text: Statistics were made according to Bliss method (“Experimental Design and Statistical Basis for Drug Evaluation”, Changxiao Liu, Ruiyuan Su, first edition, Military Medical Science Press, 1993, 80-90).

[3] = test system: Salmonella typhimurium histidine auxotroph mutants TA97, TA98, TA100 and TA102; experiment: Bacterial reverse mutation test (Ames test); type: cell-based; details: 5-5000 μg/plate, −S9 and +S9
Procedure: Bacterial reverse mutation test on compound I-20 was performed on Salmonella typhimurium histidine auxotroph mutants TA97, TA98, TA100 and TA102 (purchased from MolTox company) using conventional procedures of Ames test.
Observation period: colony counting was done 48 hours after cultivation at 37° C.
Drug solutions with different concentrations were prepared with double distilled water, and the doses were 5, 50, 500, 1000, 5000 μg/plate.
Direct effect of the test drug in the absence of metabolic activity was determined by standard plate incorporation assay. The composition of the test top layer was: 2.0 ml top layer, 0.1 ml drug solution, 0.1 ml bacteria solution and 0.5 ml phosphate buffer.
Pre-incubation was used in the determination of the drug's mutagenic effect in the presence of metabolic activity. The composition of the test top layer is: 2.0 ml top layer, 0.1 ml drug solution, 0.1 ml bacteria solution and 0.5 ml S9 mix.
The resulting drug solution, bacterial solution and S9 mix were first incubated at 35° C. for 30 min while shaking, and then tested according to standard plate incorporation assay. Each dose was tested in three plates, each mutant was tested in the absence or presence of metabolic activity (−S9 or +S9) and repeated twice, the number of revertant colonies was calculated as x±SD.

[4] = Animal model study of II-9 (repeated dosing, addiction potential, oral absorption); type: in vivo
[5] = affinity to 5-HT2A receptor, concentration gradient test

SMILES: N#Cc1ccc2ccn(CCCCN3CCC(c4noc5cc(F)ccc45)CC3)c2c1 [II-9, 1-(4-(4-(6-fluorobenzo[d]isoxazol-3-yl)piperidin-1-yl)butyl)-1H-indole-6-carbonitrile]
- IC50 (5-HT2A receptor; [5]): 2.92 nM
- Ki (5-HT2A receptor; [5]): 1.97 nM
- inhibitory activity on 5-HT2A (in words) (5-HT2A receptor; compared with Aripiprazole): potent inhibitory activities
- inhibition at 10 µM (5-HT2A receptor; read-out: 5-HT2A [3H]-Ketanserin inhibition percentage): 99.3%
- Percentage increase in pain threshold (Kunming mice; 10 mg/kg S.c.): 97.98* %
- Percentage increase in pain threshold (Kunming mice; 20 mg/kg S.c.): 220.49** %
- Percentage increase in pain threshold (Kunming mice; 40 mg/kg S.c.): 229.39** %
- Sedative effect (mice): 47*
- affinity to opioid receptor subtype μ (in words) [1]: no obvious affinity
- inhibition at 10 µM ([1]; tested concentration 10^−5 mol/L, read-out: μ inhibition percentage of competitive binding): 53.4 ± 0.7%
- LD50 [2]: 800 mg/kg
- Ames test result [3]: negative
- drug tolerance ([4]; after repeated dosing): No drug tolerance is observed
- potential for addiction ([4]; in vivo): rather low
- absorption through oral administration ([4]; oral): well absorbed
